Data on 16 molecules can be found in PubChem BioAssay AID200 (DTP/NCI, 2004).

The test system of this experiment is B6C3F1 mice, B16 melanoma ip, median survival T/C. The experiment in a line: NCI In Vivo Anticancer Drug Screen. Data for tumor model B16 Melanoma (intraperitoneal) in B6C3F1 mice. The note with it: endpoint: median survival time, higher = longer survival. The essentials: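 Mice bearing transplanted tumor were dosed with compound or vehicle, and survival was recorded. Activity is expressed as the treated-group measurement (T) divided by the vehicle control measurement (C).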

Setting [1] is: dose: 1.5 mg/kg/injection, schedule: Q01DX009 (ip), vehicle: saline.
Where [2] appears, read: dose: 3.0 mg/kg/injection, schedule: Q01DX009 (ip), vehicle: saline.
[3] abbreviates: dose: 6.0 mg/kg/injection, schedule: Q01DX009 (ip), vehicle: saline.
The mark [4] stands for this setting: dose: 12.0 mg/kg/injection, schedule: Q01DX009 (ip), vehicle: saline.
The mark [5] stands for this setting: dose: 100.0 mg/kg/injection, schedule: Q01DX009 (ip), vehicle: Klucel (hydroxypropylcellulose) (HPC).
The mark [6] stands for this setting: dose: 200.0 mg/kg/injection, schedule: Q01DX009 (ip), vehicle: Klucel (hydroxypropylcellulose) (HPC).
The mark [7] stands for this setting: dose: 400.0 mg/kg/injection, schedule: Q01DX009 (ip), vehicle: Klucel (hydroxypropylcellulose) (HPC).
[8] abbreviates: dose: 25.0 mg/kg/injection, schedule: Q01DX009 (ip), vehicle: saline.
Setting [9] is: dose: 50.0 mg/kg/injection, schedule: Q01DX009 (ip), vehicle: saline with Tween-80.
The mark [10] stands for this setting: dose: 6.25 mg/kg/injection, schedule: Q01DX009 (ip), vehicle: saline with Tween-80.
[11] abbreviates: dose: 12.5 mg/kg/injection, schedule: Q01DX009 (ip), vehicle: saline with Tween-80.
The mark [12] stands for this setting: dose: 25.0 mg/kg/injection, schedule: Q01DX009 (ip), vehicle: saline with Tween-80.
Where [13] appears, read: dose: 100.0 mg/kg/injection, schedule: Q01DX009 (ip), vehicle: saline with Tween-80.
Setting [14] is: dose: 3.12 mg/kg/injection, schedule: Q01DX009 (ip), vehicle: saline with Tween-80.
The mark [15] stands for this setting: dose: 50.0 mg/kg/injection, schedule: Q01DX009 (ip), vehicle: saline.
[16] abbreviates: dose: 100.0 mg/kg/injection, schedule: Q01DX009 (ip), vehicle: saline.
The mark [17] stands for this setting: dose: 200.0 mg/kg/injection, schedule: Q01DX009 (ip), vehicle: saline.

Where “and” joins values, the source holds several entries; their conditions need not be identical. Equal entries are not always repeated. Toxic doses and inconclusive results are not listed. Where a SMILES comes first, the peptide text is derived from it. [ ]: non-standard residue; d: D form. The star is where a group is joined. Cbz = O=C(OCc1ccccc1)*; Nva = CCC[CH](N)C(=O)O

In the case of `CCC1=C[C@H]2CN(CCc3c([nH]c4ccccc34)[C@@](C(=O)OC)(c3cc4c(cc3OC)N(C)[C@H]3[C@@](O)(C(=O)NC)[C@H](OC(C)=O)[C@]5(CC)C=CCN6CC[C@]43[C@@H]65)C2)C1`, the T/C is 117 % of control (dose: 0.03 mg/kg/injection, schedule: Q01DX009 (ip), vehicle: saline); 118 % of control (dose: 0.06 mg/kg/injection, schedule: Q01DX009 (ip), vehicle: saline); 170 % of control (dose: 0.12 mg/kg/injection, schedule: Q01DX009 (ip), vehicle: saline); 182 % of control (dose: 0.25 mg/kg/injection, schedule: Q01DX009 (ip), vehicle: saline); 238 % of control (dose: 0.5 mg/kg/injection, schedule: Q01DX009 (ip), vehicle: saline).
For the molecule `Cc1ccc(N=NN(C)C)c2cccnc12`, the T/C (dose: 3.13 mg/kg/injection, schedule: Q01DX009 (ip), vehicle: other) is 106 % of control; the T/C (dose: 6.25 mg/kg/injection, schedule: Q01DX009 (ip), vehicle: other) is 95 % of control; the T/C (dose: 12.5 mg/kg/injection, schedule: Q01DX009 (ip), vehicle: other) was 108 % of control; the T/C (dose: 25.0 mg/kg/injection, schedule: Q01DX009 (ip), vehicle: other) was 114 % of control; the T/C (dose: 50.0 mg/kg/injection, schedule: Q01DX009 (ip), vehicle: other) is 115 % of control.
As to `COc1cccc2c1C(=O)c1c(O)c3c(c(O)c1C2=O)C[C@H](O)C[C@@H]3OC1CC(N)C(O)C(C)O1` (some centres undefined), the T/C by setting is: (dose: 0.75 mg/kg/injection, schedule: Q01DX009 (ip), vehicle: saline) 150 % of control; (dose: 0.75 mg/kg/injection, schedule: Q01DX009 (ip), vehicle: water) 159 % of control; under setting [1], 184 % of control; (dose: 1.5 mg/kg/injection, schedule: Q01DX009 (ip), vehicle: water) 164 % of control; under setting [2], 175 % of control; (dose: 3.0 mg/kg/injection, schedule: Q01DX009 (ip), vehicle: water) 192 % of control. The T/C under setting [3] was 260 % of control; the T/C (dose: 6.0 mg/kg/injection, schedule: Q01DX009 (ip), vehicle: water) was 215 % of control; the T/C under setting [4] is 346 % of control; the T/C (dose: 12.0 mg/kg/injection, schedule: Q01DX009 (ip), vehicle: water) is 320 % of control; the T/C (dose: 24.0 mg/kg/injection, schedule: Q01DX009 (ip), vehicle: saline) was 183 % of control.
For `CCCC(NC(=O)OCc1ccccc1)C(=O)NC(CCSC)C(N)=O` (centres undefined) (Cbz-[Nva]-Met-NH2; configuration not given here), the T/C is 104 % of control under setting [5], 103 % of control under setting [6] and 93 % of control under setting [7].
With `CC(O)CCC(=O)c1ccoc1` (centres undefined), the T/C by setting is: (dose: 0.62 mg/kg/injection, schedule: Q03HX027 (ip), vehicle: saline) 97 % of control; (dose: 1.25 mg/kg/injection, schedule: Q03HX027 (ip), vehicle: saline) 113 % of control; (dose: 2.5 mg/kg/injection, schedule: Q03HX027 (ip), vehicle: saline) 105 % of control; (dose: 5.0 mg/kg/injection, schedule: Q01DX009 (ip), vehicle: saline) 105 % of control; (dose: 5.0 mg/kg/injection, schedule: Q03HX027 (ip), vehicle: saline) 114 % of control; (dose: 10.0 mg/kg/injection, schedule: Q01DX009 (ip), vehicle: saline) 93 % of control. In addition, the T/C was 105 % of control (dose: 10.0 mg/kg/injection, schedule: Q03HX027 (ip), vehicle: saline) and 98 % of control (dose: 20.0 mg/kg/injection, schedule: Q01DX009 (ip), vehicle: saline).
Take `O=c1c(O)c(O)c1=O.[NH2-].[NH2-].[NH2-].[NH2-].[NH2-].[Ru+5]`: the T/C (dose: 3.12 mg/kg/injection, schedule: Q01DX009 (ip), vehicle: saline) is 110 % of control; the T/C (dose: 3.75 mg/kg/injection, schedule: Q01DX009 (ip), vehicle: saline) is 104 % of control; the T/C (dose: 6.25 mg/kg/injection, schedule: Q01DX009 (ip), vehicle: saline) was 120 % of control; the T/C (dose: 10.42 mg/kg/injection, schedule: Q01DX009 (ip), vehicle: saline) was 122 % of control; the T/C under setting [8] was 87 % of control.
`Nc1nc(-c2ccccc2)c(Br)c(=O)[nH]1`: the T/C was 156 % of control and 183 % of control under setting [9]; 116 % of control (dose: 800.0 mg/kg/injection, schedule: Q01DX009 (ip), vehicle: saline with Tween-80).
In the case of `Cc1ccc2c(c1)N=C(Nc1ccccc1)N=S2(C)=O` (centres undefined), the T/C is 101 % of control under setting [10]; 87 % of control under setting [11]; 102 % of control under setting [12]; 96 % of control under setting [9]; 87 % of control under setting [13]; 90 % of control (dose: 200.0 mg/kg/injection, schedule: Q01DX009 (ip), vehicle: saline with Tween-80).
Take `NC(C(=O)O)c1ccc(CBr)cc1` (centres undefined): the T/C (dose: 6.0 mg/kg/injection, schedule: Q01DX009 (ip), vehicle: saline with Tween-80) was 114 % of control; the T/C under setting [10] is 111 % of control; the T/C under setting [12] was 159 % of control; the T/C under setting [9] is 155 % of control and 165 % of control; the T/C under setting [13] was 150 % of control and 183 % of control.
Turning to `ClCC[Se](Cl)(Cl)c1ccccc1`, the T/C runs as follows: under setting [1], 102 % of control; (dose: 1.56 mg/kg/injection, schedule: Q01DX009 (ip), vehicle: saline) 113 % of control; under setting [2], 116 % of control; under setting [3], 108 % of control.
Take `Cc1nn(CCO)c(C)c1N=[N+]([O-])c1c(C)nn(CCO)c1C`: the T/C by setting is: (dose: 3.12 mg/kg/injection, schedule: Q01DX009 (ip), vehicle: Klucel (hydroxypropylcellulose) (HPC)) 107 % of control; under setting [14], 97 % of control; (dose: 6.25 mg/kg/injection, schedule: Q01DX009 (ip), vehicle: Klucel (hydroxypropylcellulose) (HPC)) 109 % of control; under setting [10], 100 % of control; (dose: 12.5 mg/kg/injection, schedule: Q01DX009 (ip), vehicle: Klucel (hydroxypropylcellulose) (HPC)) 111 % of control; under setting [11], 92 % of control. Moreover, the T/C runs as follows: (dose: 25.0 mg/kg/injection, schedule: Q01DX009 (ip), vehicle: Klucel (hydroxypropylcellulose) (HPC)) 95 % of control; under setting [12], 92 % of control; (dose: 50.0 mg/kg/injection, schedule: Q01DX009 (ip), vehicle: Klucel (hydroxypropylcellulose) (HPC)) 91 % of control; under setting [9], 96 % of control; under setting [5], 91 % of control.
As for `COC1C(OC(=O)/C=C/C=C/C=C/C=C/C(=O)O)CCC2(CO2)C1C1(C)OC1CC=C(C)C` (centres undefined), the T/C is 117 % of control under setting [8], 113 % of control under setting [15], 119 % of control under setting [16] and 113 % of control under setting [17].
For `Nc1nc(N)c2c(Cl)c(CNc3ccc(Cl)c(Cl)c3)ccc2n1`, the T/C by setting is: under setting [14], 121 % of control; under setting [10], 106 % of control; under setting [11], 123 % of control.
As for `COc1cc2cc3cc4cc(OC)c(OC)cc4c(C)[n+]3cc2cc1OC` (tested in a mixture with another compound), the T/C reads like this: (dose: 12.5 mg/kg/injection, schedule: Q01DX009 (ip), vehicle: saline) 106 % of control; under setting [8], 100 % of control; under setting [15], 100 % of control; under setting [16], 90 % of control.
Consider `CCCC(NC(=O)OCc1ccccc1)C(=O)NC(Cc1ccccc1)C(=O)O` (centres undefined) (Cbz-[Nva]-Phe-OH; configuration not given here), for which the T/C under setting [5] is 101 % of control, the T/C under setting [6] was 104 % of control and the T/C under setting [7] was 89 % of control.
`c1csc(C[N+]23CN4CN(CN(C4)C2)C3)c1`: the T/C by setting is: under setting [4], 100 % of control; under setting [8], 98 % of control; under setting [15], 98 % of control; under setting [16], 104 % of control; under setting [17], 106 % of control.
